According to US4442044A, “Process for preparing monoesters and diesters of N-alkyl substituted amino methyl phosphonic acid” (priority 1983, dated 1984):

Columns and labels:
Type in all cases: in vivo
Barnyardgrass [1] = assay: post-emergent herbicidal activity, greenhouse; details: 4 WAT
How it was run: (§1)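 Seeds or propagules sown in compacted top soil, grown 2–3 weeks in greenhouse, then sprayed with compound solution/suspension containing ~0.4% emulsifier at tabulated rates. Injury scored visually versus untreated controls at ~2 and 4 weeks after treatment, expressed as a herbicidal activity index.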

Lambsquarters [2] = assay: post-emergent herbicidal activity, greenhouse; details: 4 WAT
How it was run: as §1

Johnsongrass [3] = assay: post-emergent herbicidal activity, greenhouse; details: Table I, 4 WAT
How it was run: as §1

Smartweed [4] = assay: post-emergent herbicidal activity, greenhouse; details: 4 WAT
How it was run: as §1

Cocklebur [5] = assay: post-emergent herbicidal activity, greenhouse; details: 4 WAT
How it was run: as §1

Sugar Beet = assay: post-emergent herbicidal activity, greenhouse; details: Table II, 4 WAT
How it was run: as §1

Quackgrass [6] = assay: post-emergent herbicidal activity, greenhouse; details: Table I, 4 WAT
How it was run: as §1

Sorghum = assay: post-emergent herbicidal activity, greenhouse; details: Table II, 4 WAT
How it was run: as §1

Wheat = assay: post-emergent herbicidal activity, greenhouse; details: Table II, 4 WAT
How it was run: as §1

Yellow Nutsedge [7] = assay: post-emergent herbicidal activity, greenhouse; details: Table I, 4 WAT
How it was run: as §1

Crabgrass = assay: post-emergent herbicidal activity, greenhouse; details: Table II, 4 WAT
How it was run: as §1

Morningglory [8] = assay: post-emergent herbicidal activity, greenhouse; details: 4 WAT
How it was run: as §1

Panicum Spp = assay: post-emergent herbicidal activity, greenhouse; details: Table II, 4 WAT
How it was run: as §1

Hemp Sesbania = assay: post-emergent herbicidal activity, greenhouse; details: Table II, 4 WAT
How it was run: as §1

Downy Brome [9] = assay: post-emergent herbicidal activity, greenhouse; details: 4 WAT
How it was run: as §1

Velvetleaf [10] = assay: post-emergent herbicidal activity, greenhouse; details: 4 WAT
How it was run: as §1

Rice = assay: post-emergent herbicidal activity, greenhouse; details: Table II, 4 WAT
How it was run: as §1

Canada Thistle [11] = assay: post-emergent herbicidal activity, greenhouse; details: Table I, 4 WAT
How it was run: as §1

Wild Buckwheat = assay: post-emergent herbicidal activity, greenhouse; details: Table II, 4 WAT
How it was run: as §1

Soybean = assay: post-emergent herbicidal activity, greenhouse; details: Table II, 4 WAT
How it was run: as §1

Barnyardgrass [12] = assay: pre-emergent herbicidal activity, soil incorporation; details: Table III, 2 WAT, 11.2 kg/h
How it was run: (§2)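 Seeds/propagules placed on compacted top soil, then covered with soil admixed with composition containing known active-ingredient amount (soil incorporation); sub-irrigated on wet sand bench about two weeks under ordinary sunlight and watering. Emerged plants counted per species against untreated control; index from average percent control.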

Lambsquarters [13] = assay: as above; details: Table III, 2 WAT, 11.2 kg/h
How it was run: as §2

Johnsongrass [14] = assay: as above; details: Table III, 2 WAT, 11.2 kg/h
How it was run: as §2

Smartweed [15] = assay: as above; details: Table III, 2 WAT, 11.2 kg/h
How it was run: as §2

Cocklebur [16] = assay: as above; details: Table III, 2 WAT, 11.2 kg/h
How it was run: as §2

Quackgrass [17] = assay: as above; details: Table III, 2 WAT, 11.2 kg/h
How it was run: as §2

Yellow Nutsedge [18] = assay: as above; details: Table III, 2 WAT, 11.2 kg/h
How it was run: as §2

Morningglory [19] = assay: as above; details: Table III, 2 WAT, 11.2 kg/h
How it was run: as §2

Downy Brome [20] = assay: as above; details: Table III, 2 WAT, 11.2 kg/h
How it was run: as §2

Velvetleaf [21] = assay: as above; details: Table III, 2 WAT, 11.2 kg/h
How it was run: as §2

Canada Thistle [22] = assay: as above; details: Table III, 2 WAT, 11.2 kg/h
How it was run: as §2

SMILES: CCCCCOC(=O)CNCP(=O)(O)OC(C)C#N (stereo not drawn) [Example 6, glycine, N-[[(1-cyanoethoxy)hydroxy-phosphinyl]methyl]pentyl ester, hemihydrate]
- post-emergent herbicidal activity index (Barnyardgrass [1]; Table I, 5.6 kg/h): 3 (75-99% control)
- post-emergent herbicidal activity index (Barnyardgrass [1]; Table I, 11.2 kg/h): 3 (75-99% control)
- post-emergent herbicidal activity index (Barnyardgrass [1]; Table II, 0.28 kg/h): 2 (50-74% control)
- post-emergent herbicidal activity index (Barnyardgrass [1]; Table II, 1.12 kg/h): 3 (75-99% control)
- post-emergent herbicidal activity index (Barnyardgrass [1]; Table II, 5.6 kg/h): 3 (75-99% control)
- post-emergent herbicidal activity index (Lambsquarters [2]; Table I, 5.6 kg/h): 2 (50-74% control)
- post-emergent herbicidal activity index (Lambsquarters [2]; Table I, 11.2 kg/h): 4 (100% control)
- post-emergent herbicidal activity index (Lambsquarters [2]; Table II, 0.28 kg/h): 1 (25-49% control)
- post-emergent herbicidal activity index (Lambsquarters [2]; Table II, 1.12 kg/h): 3 (75-99% control)
- post-emergent herbicidal activity index (Lambsquarters [2]; Table II, 5.6 kg/h): 4 (100% control)
- post-emergent herbicidal activity index (Johnsongrass [3]; 5.6 kg/h): 1 (25-49% control)
- post-emergent herbicidal activity index (Johnsongrass [3]; 11.2 kg/h): 2 (50-74% control)
- post-emergent herbicidal activity index (Smartweed [4]; Table I, 5.6 kg/h): 4 (100% control)
- post-emergent herbicidal activity index (Smartweed [4]; Table I, 11.2 kg/h): 4 (100% control)
- post-emergent herbicidal activity index (Smartweed [4]; Table II, 0.28 kg/h): 1 (25-49% control)
- post-emergent herbicidal activity index (Smartweed [4]; Table II, 1.12 kg/h): 3 (75-99% control)
- post-emergent herbicidal activity index (Smartweed [4]; Table II, 5.6 kg/h): 3 (75-99% control)
- post-emergent herbicidal activity index (Cocklebur [5]; Table I, 5.6 kg/h): 3 (75-99% control)
- post-emergent herbicidal activity index (Cocklebur [5]; Table I, 11.2 kg/h): 3 (75-99% control)
- post-emergent herbicidal activity index (Cocklebur [5]; Table II, 0.28 kg/h): 2 (50-74% control)
- post-emergent herbicidal activity index (Cocklebur [5]; Table II, 1.12 kg/h): 2 (50-74% control)
- post-emergent herbicidal activity index (Cocklebur [5]; Table II, 5.6 kg/h): 3 (75-99% control)
- post-emergent herbicidal activity index (Sugar Beet; 0.28 kg/h): 2 (50-74% control)
- post-emergent herbicidal activity index (Sugar Beet; 1.12 kg/h): 4 (100% control)
- post-emergent herbicidal activity index (Sugar Beet; 5.6 kg/h): 4 (100% control)
- post-emergent herbicidal activity index (Quackgrass [6]; 5.6 kg/h): 2 (50-74% control)
- post-emergent herbicidal activity index (Quackgrass [6]; 11.2 kg/h): 3 (75-99% control)
- post-emergent herbicidal activity index (Sorghum; 0.28 kg/h): 1 (25-49% control)
- post-emergent herbicidal activity index (Sorghum; 1.12 kg/h): 3 (75-99% control)
- post-emergent herbicidal activity index (Sorghum; 5.6 kg/h): 4 (100% control)
- post-emergent herbicidal activity index (Wheat; 0.28 kg/h): 2 (50-74% control)
- post-emergent herbicidal activity index (Wheat; 1.12 kg/h): 2 (50-74% control)
- post-emergent herbicidal activity index (Wheat; 5.6 kg/h): 4 (100% control)
- post-emergent herbicidal activity index (Yellow Nutsedge [7]; 5.6 kg/h): 2 (50-74% control)
- post-emergent herbicidal activity index (Yellow Nutsedge [7]; 11.2 kg/h): 4 (100% control)
- post-emergent herbicidal activity index (Crabgrass; 0.28 kg/h): 3 (75-99% control)
- post-emergent herbicidal activity index (Crabgrass; 1.12 kg/h): 3 (75-99% control)
- post-emergent herbicidal activity index (Crabgrass; 5.6 kg/h): 4 (100% control)
- post-emergent herbicidal activity index (Morningglory [8]; Table I, 5.6 kg/h): 3 (75-99% control)
- post-emergent herbicidal activity index (Morningglory [8]; Table I, 11.2 kg/h): 2 (50-74% control)
- post-emergent herbicidal activity index (Morningglory [8]; Table II, 0.28 kg/h): 2 (50-74% control)
- post-emergent herbicidal activity index (Morningglory [8]; Table II, 1.12 kg/h): 2 (50-74% control)
- post-emergent herbicidal activity index (Morningglory [8]; Table II, 5.6 kg/h): 3 (75-99% control)
- post-emergent herbicidal activity index (Panicum Spp; 0.28 kg/h): 4 (100% control)
- post-emergent herbicidal activity index (Panicum Spp; 1.12 kg/h): 4 (100% control)
- post-emergent herbicidal activity index (Panicum Spp; 5.6 kg/h): 4 (100% control)
- post-emergent herbicidal activity index (Hemp Sesbania; 0.28 kg/h): 1 (25-49% control)
- post-emergent herbicidal activity index (Hemp Sesbania; 1.12 kg/h): 2 (50-74% control)
- post-emergent herbicidal activity index (Hemp Sesbania; 5.6 kg/h): 4 (100% control)
- post-emergent herbicidal activity index (Downy Brome [9]; Table I, 5.6 kg/h): 1 (25-49% control)
- post-emergent herbicidal activity index (Downy Brome [9]; Table I, 11.2 kg/h): 3 (75-99% control)
- post-emergent herbicidal activity index (Downy Brome [9]; Table II, 0.28 kg/h): 3 (75-99% control)
- post-emergent herbicidal activity index (Downy Brome [9]; Table II, 1.12 kg/h): 3 (75-99% control)
- post-emergent herbicidal activity index (Downy Brome [9]; Table II, 5.6 kg/h): 4 (100% control)
- post-emergent herbicidal activity index (Velvetleaf [10]; Table I, 5.6 kg/h): 3 (75-99% control)
- post-emergent herbicidal activity index (Velvetleaf [10]; Table I, 11.2 kg/h): 3 (75-99% control)
- post-emergent herbicidal activity index (Velvetleaf [10]; Table II, 0.28 kg/h): 1 (25-49% control)
- post-emergent herbicidal activity index (Velvetleaf [10]; Table II, 1.12 kg/h): 2 (50-74% control)
- post-emergent herbicidal activity index (Velvetleaf [10]; Table II, 5.6 kg/h): 3 (75-99% control)
- post-emergent herbicidal activity index (Rice; 0.28 kg/h): 1 (25-49% control)
- post-emergent herbicidal activity index (Rice; 1.12 kg/h): 2 (50-74% control)
- post-emergent herbicidal activity index (Rice; 5.6 kg/h): 4 (100% control)
- post-emergent herbicidal activity index (Canada Thistle [11]; 5.6 kg/h): 4 (100% control)
- post-emergent herbicidal activity index (Canada Thistle [11]; 11.2 kg/h): 4 (100% control)
- post-emergent herbicidal activity index (Wild Buckwheat; 0.28 kg/h): 2 (50-74% control)
- post-emergent herbicidal activity index (Wild Buckwheat; 1.12 kg/h): 2 (50-74% control)
- post-emergent herbicidal activity index (Wild Buckwheat; 5.6 kg/h): 4 (100% control)
- post-emergent herbicidal activity index (Soybean; 0.28 kg/h): 1 (25-49% control)
- post-emergent herbicidal activity index (Soybean; 1.12 kg/h): 2 (50-74% control)
- post-emergent herbicidal activity index (Soybean; 5.6 kg/h): 4 (100% control)
- pre-emergent herbicidal activity index (Barnyardgrass [12]): 0 (1-24% control)
- pre-emergent herbicidal activity index (Lambsquarters [13]): 0 (1-24% control)
- pre-emergent herbicidal activity index (Johnsongrass [14]): 0 (1-24% control)
- pre-emergent herbicidal activity index (Smartweed [15]): 0 (1-24% control)
- pre-emergent herbicidal activity index (Cocklebur [16]): 0 (1-24% control)
- pre-emergent herbicidal activity index (Quackgrass [17]): 0 (1-24% control)
- pre-emergent herbicidal activity index (Yellow Nutsedge [18]): 0 (1-24% control)
- pre-emergent herbicidal activity index (Morningglory [19]): 0 (1-24% control)
- pre-emergent herbicidal activity index (Downy Brome [20]): 0 (1-24% control)
- pre-emergent herbicidal activity index (Velvetleaf [21]): 0 (1-24% control)
- pre-emergent herbicidal activity index (Canada Thistle [22]): 0 (1-24% control)
